In US8815921B2, “Active substance combination based on trifluorobutinyl compounds and exhibiting nematicidal and insecticidal properties” (priority 2003, dated 2014):
Several values for one entry are separate records, joined by “and”; a condition that tells them apart may be missing. Equal entries are not always repeated.

What was measured:
Format in all cases: in vivo
[1] = test system: caterpillars of the army worm (Spodoptera frugiperda); assay: Spodoptera frugiperda Test
Experimental: (§1) To produce a suitable preparation of active compound, 1 part by weight of active compound is mixed with the stated amounts of solvent and emulsifier, and the concentrate is diluted with emulsifier containing water to the desired concentration.
(§2) Cabbage leaves (Brassica oleracea) are treated by being dipped into the preparation of active compound of the desired concentration and are populated with caterpillars of the army worm (Spodoptera frugiperda) while the leaves are still moist. After the desired period of time, the kill in percent is determined. 100% means that all caterpillars have been killed; 0% means that none of the caterpillars has been killed. The kill rates determined are inserted into Colby's formula (see sheet 34).

[2] = test system: larvae of the mustard beetle (Phaedon cochleariae); assay: Phaedon-Larvae Test; conditions: cabbage leaf dip
Experimental: as §1
as §2, with “with larvae” for “with caterpillars”, “the mustard beetle (Phaedon cochleariae)” for “the army worm (Spodoptera frugiperda)”, “all beetle larvae” for “all caterpillars”, “the beetle larvae” for “the caterpillars”

[3] = test system: green peach aphid (Myzus persicae); assay: Myzus Test
Experimental: as §1
Cabbage leaves (Brassica oleracea), which are heavily infested by the green peach aphid (Myzus persicae) are treated by being dipped into the preparation of active compound of the desired concentration. After the desired period of time, the kill in % is determined. 100% means that all aphids have been killed; 0% means that none of the aphids has been killed. The kill rates determined are inserted into Colby's formula (see sheet 1).

[4] = test system: caterpillars of the diamondback moth (Plutella xylostella, sensitive strain); assay: Plutella Test, sensitive strain; conditions: for Kill rate [%] after 6 days: 20 ppm
Experimental: as §1
as §2, with “diamondback moth (Plutella xylostella, sensitive strain)” for “army worm (Spodoptera frugiperda)”

With Cc1c(F)c(F)c(COC(=O)[C@@H]2[C@H](/C=C(\Cl)C(F)(F)F)C2(C)C)c(F)c1F (racemic) [tefluthrin] the “Kill rate [%] after 3 days” value ([1]; 0.8 ppm) was 40%, the “Kill rate [%] after 3 days” value ([2]; 4 ppm) was 75% and the “Kill rate [%] after 1 day” value ([3]; 4 ppm) was 0%. The “Kill rate [%] after 3 days” value ([4]; 0.16 ppm) was 20%.
O=S(=O)(CCC(F)=C(F)F)c1ncc(Cl)s1 [(IC)] was tested, and the “Kill rate [%] after 3 days” value ([1]; 500 ppm, cabbage leaf dip) was 0%, the “Kill rate [%] after 6 days” value ([1]; 500 ppm) was 20% and the “Kill rate [%] after 3 days” value ([2]; 500 ppm) was 0%. The “Kill rate [%] after 1 day” value ([3]; 100 ppm, cabbage leaf dip) was 0%, the “Kill rate [%] after 6 days” value ([3]; 100 ppm) was 0% and the “Kill rate [%] after 3 days” value ([4]; 500 ppm, cabbage leaf dip) was 0% and 5%.
CCOC(=O)OC1=C(c2cc(C)ccc2C)C(=O)NC12CCC(OC)CC2 (stereo not drawn) [(IIA), carboxylic acid, 3-(2,5-dimethylphenyl)-8-methoxy-2-oxo-1-azaspiro[4.5]dec-3-en-4-yl ethyl ester, (9Cl)] was tested, and the “Kill rate [%] after 6 days” value ([1]; 100 ppm) was 30%, the “Kill rate [%] after 6 days” value ([3]; 4 ppm) was 55% and the “Kill rate [%] after 3 days” value ([4]; 4 ppm) was 95%.
With CNC(=O)O/N=C/C(C)(C)SC [aldicarb] the “Kill rate [%] after 3 days” value ([2]; 20 ppm) was 35% and the “Kill rate [%] after 6 days” value [4] was 0%.
With CN/C(=N\[N+](=O)[O-])NCc1cnc(Cl)s1 [clothianidin] the “Kill rate [%] after 3 days” value ([1]; 4 ppm) was 85% and the “Kill rate [%] after 3 days” value ([2]; 4 ppm) was 15%.
In the case of N#Cc1nn(-c2c(Cl)cc(C(F)(F)F)cc2Cl)c(N)c1[S+]([O-])C(F)(F)F (stereo not drawn) [fipronil], the “Kill rate [%] after 6 days” value ([1]; 0.8 ppm) is reported as 0%.
In the case of O=[N+]([O-])NC1=NCCN1Cc1ccc(Cl)nc1 [imidacloprid], the “Kill rate [%] after 3 days” value ([2]; 20 ppm) is reported as 45% and the “Kill rate [%] after 6 days” value [4] is reported as 5%.
With CCOP(=S)(Oc1cnc(C(C)(C)C)nc1)OC(C)C (stereo not drawn) [tebupirimfos] the “Kill rate [%] after 6 days” value ([1]; 0.8 ppm) was 0%, the “Kill rate [%] after 6 days” value ([3]; 20 ppm) was 35% and the “Kill rate [%] after 3 days” value ([4]; 0.8 ppm) was 0%.
spinosad was tested, and the “Kill rate [%] after 3 days” value ([1]; 0.16 ppm) was 60%.
